Changes are numbered by the printed parent chain.
Experiments:
AHR [1] = system: AHR; parameters: method as in PMID 33260776; conditions: 10 nM, H9 cells; two genes less expressed, 14 higher expressed; cited from earlier work
AHR [2] = system: AHR; parameters: method as in PMID 33230523; conditions: human cells overexpressing either AHR version; cited from earlier work
AHR^A381 = biological target: T1, AHR^A381 (Homo sapiens, UniProt P35869, V381A); conditions: 5 µM, 4 h
T1 sequence (P35869 11-848 V381A): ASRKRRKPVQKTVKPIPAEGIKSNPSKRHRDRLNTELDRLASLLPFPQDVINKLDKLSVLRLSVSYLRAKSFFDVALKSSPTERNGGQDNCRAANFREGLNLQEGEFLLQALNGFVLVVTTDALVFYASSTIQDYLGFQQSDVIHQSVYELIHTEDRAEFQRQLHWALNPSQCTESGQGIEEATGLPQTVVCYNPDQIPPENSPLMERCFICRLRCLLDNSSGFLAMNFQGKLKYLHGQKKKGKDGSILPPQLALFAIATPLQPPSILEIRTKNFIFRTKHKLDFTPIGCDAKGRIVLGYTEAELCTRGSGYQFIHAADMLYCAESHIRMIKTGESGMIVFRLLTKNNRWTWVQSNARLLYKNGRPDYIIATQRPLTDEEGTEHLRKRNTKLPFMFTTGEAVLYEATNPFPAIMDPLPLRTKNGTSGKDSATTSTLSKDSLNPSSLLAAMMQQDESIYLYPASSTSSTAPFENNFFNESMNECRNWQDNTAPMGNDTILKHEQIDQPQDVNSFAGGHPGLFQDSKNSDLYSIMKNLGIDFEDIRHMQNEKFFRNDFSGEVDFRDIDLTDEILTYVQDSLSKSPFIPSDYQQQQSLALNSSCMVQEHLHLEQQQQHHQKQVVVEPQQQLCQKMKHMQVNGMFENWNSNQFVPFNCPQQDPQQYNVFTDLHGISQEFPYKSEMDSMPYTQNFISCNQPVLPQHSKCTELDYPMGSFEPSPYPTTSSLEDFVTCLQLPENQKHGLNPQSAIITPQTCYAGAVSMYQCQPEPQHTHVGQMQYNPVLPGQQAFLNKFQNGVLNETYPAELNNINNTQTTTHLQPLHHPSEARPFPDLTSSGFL
Text: (§1) the manufacturer's instructions.
(§2) manufacturer’s instructions.

AHR^V381 [3] = biological target: T2, AHR^V381 (Homo sapiens, UniProt P35869); test: RNA sequencing of treated versus mock-treated AHR^V381-expressing H9 cells; format: cell-based; parameters: they had not been changed in the editing process; endogenous in cells; host or cells: H9 human embryonic stem cells, a pool of 13 control clones that went through editing but remained wild type; conditions: 5 µM, 4 h
T2 sequence (P35869 11-848): T1 sequence (P35869 11-848 V381A) with A371V
Text: as §1, §2

AHR^V381 [4] = biological target: T2, AHR^V381; conditions: AHR^V381 cells, 4 h
Description: We incubated the cells with different concentrations of AHR ligands and measured CYP1A1 and CYP1B1 mRNA levels after 4 h.
Error bars show SDs of four independent ligand treatments. qPCR were performed in triplicates.
AHR, CYP1A1 and CYP1B1 relative quantification and ligand assays
were purchased from Sigma-Aldrich, dissolved in DMSO (Invitrogen, D12345) to generate stocks 2000x
the final concentrations used in the ligand assays and stored at -20°C.
Four days prior to cell harvest, a single cell solution was prepared with Accutase and the cells were
3000 cells per well were seeded in 96 well plates
and cultured under normal cell culture conditions for four days, with the last media change 24h before cell
harvest. Ligands were added to a final concentration of 0.05% DMSO in the culture medium for four hours
similar to other work (13-15). Cell harvest, reverse transcription and quantitative real-time PCR was […]
for several samples also AHR was measured in a 20 µl multiplexed quantitative PCR reaction with 10 µl […]
GUSB) or Thermo Fisher Scientific (CYP1B1, AHR), sequences: Suppl, Table S1). Quantitative PCR was […]
5 min, 45x (95 °C 5 s, 60 °C 15 s, 72 °C 15 s, plate read). […]
Cq values were determined with Bio-Rad Laboratories’ CFX-Manager (version 3.1) and relative […]
gene in untreated wild type cells. The data were plotted and analyzed using GraphPad Prism (version 8.4.3). […]

In the case of `Clc1cc2c(cc1Cl)Oc1cc(Cl)c(Cl)cc1O2` [2,3,7,8-Tetrachlorodibenzo-p-dioxin], the “number of the 117 differentially expressed genes affected by TCDD exposure” value (AHR [1]) is listed as 16 genes and the “difference between the two AHR forms in induction of CYP1A1” value (AHR [2]) is listed as “no differences”.

In the case of `Cc1ccccc1N=Nc1ccc(NC(=O)c2ccnn2C)c(C)c1` [CH-223191], the “number of the 117 genes differing between AHR^A381 and AHR^V381 cells that change expression upon inhibitor treatment” value (AHR^A381) is reported as 20 genes, the “number of the 117 genes differing between AHR^A381 and AHR^V381 cells that change expression upon inhibitor treatment” value (AHR^V381 [3]) is reported as “none” and the “target gene expression upon inhibitor treatment” value (AHR^V381 [3]) is reported as “tends to be further reduced upon treatment with the inhibitor, albeit not significantly so”.

For `c1ccc2c(c1)cc1ccc3cccc4ccc2c1c34` [Benzo(a)pyrene], the “concentration at which CYP1A1 and CYP1B1 mRNA levels are slightly induced” value (AHR^V381 [4]) was 1000 nM.

From publication PMC11145187 (Proceedings of the National Academy of Sciences of the …, 2024)
